According to article PMC5075098, “Preclinical Evaluation of the Stability, Safety, and Efficacy of CD101, a Novel Echinocandin” (Antimicrobial Agents and Chemotherapy, 2016):
Like-named read-outs stand apart in the source and are kept apart here. Starred links: 1 amine or outer side, 2 acyl side, 3 side chain; linkers in the order of their positions; H or OH if unused. Positions of bridges follow the written chain, without caps; N, C: chain ends. Non-standard residues stand in square brackets, D forms with d. Residues, ends and D or L forms follow the SMILES beside them. *: point of attachment. Orn(4R-OH,5R-OCH2CH2NMe3+) = C[N+](C)(C)CCO[C@@H](N[*:3])[C@H](O)C[C@H](N[*:1])C(=O)[*:2]; pTerphenylCO(4''-OnC5H11) = CCCCCOc1ccc(-c2ccc(-c3ccc(C(=O)*)cc3)cc2)cc1; hTyr(3S-OH,4S-OH) = N[C@H](C(=O)O)[C@H](O)[C@@H](O)c1ccc(O)cc1; Pro(3S-OH,4S-Me) = C[C@H]1CN[C@H](C(=O)O)[C@H]1O; Hyp = O=C(O)[C@@H]1C[C@@H](O)CN1

Assays:
[1] = Plasma protein binding, rapid equilibrium dialysis; type: in vitro ADME, Sprague-Dawley rat; settings: rat, pH 7.4, read-out: protein bound (converted)
Protocol: (§1) Rapid equilibrium dialysis (RED) ([16]) was used to determine cross-species protein binding of CD101 in CD-1 mouse, Sprague-Dawley rat, cynomolgus monkey, chimpanzee, and human plasma. […] Dialysis buffer (350 μl of phosphate-buffered saline [PBS], pH 7.4, with 100 mM sodium phosphate) was loaded into the buffer (left) channel of the RED device. The device was agitated gently at 37°C for 4 h. Samples were placed into a new 96-well plate for matrix matching (25 μl of plasma added to the dialysis buffer aliquots or 25 μl of dialysis buffer to the plasma aliquots). […] Following centrifugation, 200 μl of the supernatant was transferred to a clean 96-well plate and evaporated to dryness at 37°C under nitrogen. Samples were reconstituted in 100 μl of 1:1 acetonitrile-water prior to analysis by LC-MS/MS. The percentage bound was calculated as the difference between 100% and the percentage free (the ratio of the concentration in supernatant to the concentration in plasma).

[2] = rat
C. albicans R303 = assay: Neutropenic mouse model of C. albicans infection, kidney colony counts; settings: for log reduction in CFU per gram relative to vehicle: 24, 48, 72 h
Protocol: Immunosuppression was induced by two intraperitoneal (i.p.) injections of cyclophosphamide at 150 mg/kg 4 days before and 100 mg/kg 1 day before inoculation. […] The animals in the fluconazole group were sacrificed 48 h after infection.

CYP2C8 = target: T1, CYP2C8 (Homo sapiens, UniProt P10632); assay: CYP450 inhibition in human liver microsomes
T1 sequence (P10632 1-490): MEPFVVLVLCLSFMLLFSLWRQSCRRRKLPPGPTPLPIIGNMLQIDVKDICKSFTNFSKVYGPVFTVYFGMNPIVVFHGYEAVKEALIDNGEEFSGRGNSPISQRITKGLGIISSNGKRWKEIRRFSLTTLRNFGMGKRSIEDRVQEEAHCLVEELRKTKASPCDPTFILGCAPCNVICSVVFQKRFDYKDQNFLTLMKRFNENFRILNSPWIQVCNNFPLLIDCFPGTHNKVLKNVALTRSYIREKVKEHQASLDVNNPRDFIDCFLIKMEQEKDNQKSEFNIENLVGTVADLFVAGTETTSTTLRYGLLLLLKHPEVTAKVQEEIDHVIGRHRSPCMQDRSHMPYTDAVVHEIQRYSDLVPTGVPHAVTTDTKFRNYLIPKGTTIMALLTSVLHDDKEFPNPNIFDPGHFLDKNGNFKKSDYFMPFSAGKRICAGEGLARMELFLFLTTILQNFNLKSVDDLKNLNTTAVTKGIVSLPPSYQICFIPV
Protocol: The final DMSO content in the reaction mixture was equal in all solutions used within an assay and was less than 0.2%. […] After incubation for 5 min at 37°C, the reactions were terminated by addition of methanol-containing internal standard (propranolol) for analytical quantification. The quenched samples were incubated at 4°C for 10 min and centrifuged at 4°C for 10 min.

[3] = Plasma protein binding, rapid equilibrium dialysis; type: in vitro ADME; settings: human, pH 7.4, read-out: protein bound (converted)
Protocol: as §1

[4] = Plasma protein binding, rapid equilibrium dialysis; type: in vitro ADME, CD-1 mouse; settings: mouse, pH 7.4, read-out: protein bound (converted)
Protocol: as §1

[5] = Reactive metabolite screening (glutathione trapping); type: in vitro ADME
Protocol: Samples were diluted to 10 μg/ml into 50:50 acetonitrile-water with 0.1 formic acid. Samples were analyzed by LC (Agilent 1100) with high-resolution MS (Waters quadrupole time of flight [Q-TOF] Premier mass spectrometer with electrospray interface) with concurrent low- and high-energy scans to obtain full-scan parent and product fragment ions. The analytical column was a Phenomenex Kinetex (2.6-μm C18, 100 by 3.0 mm). Waters MassLynx 4.1 software was used for data analysis.

[6] = Plasma protein binding, rapid equilibrium dialysis; type: in vitro ADME, cynomolgus monkey; settings: monkey, pH 7.4, read-out: protein bound (converted)
Protocol: as §1

CCCCCOc1ccc(-c2ccc(-c3ccc(C(=O)N[C@H]4C[C@@H](O)[C@@H](OCC[N+](C)(C)C)NC(=O)[C@@H]5[C@@H](O)[C@@H](C)CN5C(=O)[C@H]([C@@H](C)O)NC(=O)[C@H]([C@H](O)[C@@H](O)c5ccc(O)cc5)NC(=O)[C@@H]5C[C@@H](O)CN5C(=O)[C@H]([C@@H](C)O)NC4=O)cc3)cc2)cc1 [CD101] ({pTerphenylCO(4''-OnC5H11)}-[Orn(4R-OH,5R-OCH2CH2NMe3+)]T[Hyp][hTyr(3S-OH,4S-OH)]T[Pro(3S-OH,4S-Me)]; lactam 1-C)
fraction unbound [1]: 0.022 | half-life ([2]; liver microsomes): > 4 h | half-life ([2]; microsomes): 3.99 h | microsomal CLint ([2]; microsomes): 9.6 µL/min/mg | log reduction in CFU per gram relative to vehicle (C. albicans R303; 0.2 mg/kg single i.v. dose): less than 1 log | log reduction in CFU per gram relative to vehicle (C. albicans R303; 0.4 mg/kg single i.v. dose): up to 1.7 log | log reduction in CFU per gram relative to vehicle (C. albicans R303; 0.6 mg/kg single i.v. dose): up to 2.9 log | log reduction in CFU per gram relative to vehicle (C. albicans R303; 0.8 mg/kg single i.v. dose): up to 4.7 log | antimicrobial effect (≥99%, 2-log reduction in CFU per gram) (C. albicans R303; CD101 0.6 and 0.8 mg/kg i.v., at 24, 48, and 72 h): significant | IC50 (CYP2C8): 25.7 µM | fraction unbound [3]: 0.013 | fraction unbound [4]: 0.009 | degradation on incubation with and without GSH ([5]; PBS pH 7.4, 37°C, 24 h of incubation (Fig. 3 legend), LC-HRMS): No degradation observed | GSH adduct formation (reactive intermediate) ([5]; PBS pH 7.4, excess GSH, 37°C, LC with high-resolution MS): not found to generate any GSH adduct | fraction unbound [6]: 0.011
